# Experimental data as given in patent US10266569B2 (priority 2014, dated 2019).
# “Also recorded” adds a separate entry of the source.
# Legend:
# CDV = type: cell-based, canine distemper virus
# [1] = system: NiV (Malaysian isolate UMMC1); type: cell-based, Nipah virus
# NiV N = NiV N (Nipah virus, UniProt Q9IK92); type: cell-based
# [2] = system: NiV (Malaysian isolate UMMC1); type: cell-based, Nipah virus; remark: listed apart in the source
# Chain of NiV N (Q9IK92 whole entry, looked up): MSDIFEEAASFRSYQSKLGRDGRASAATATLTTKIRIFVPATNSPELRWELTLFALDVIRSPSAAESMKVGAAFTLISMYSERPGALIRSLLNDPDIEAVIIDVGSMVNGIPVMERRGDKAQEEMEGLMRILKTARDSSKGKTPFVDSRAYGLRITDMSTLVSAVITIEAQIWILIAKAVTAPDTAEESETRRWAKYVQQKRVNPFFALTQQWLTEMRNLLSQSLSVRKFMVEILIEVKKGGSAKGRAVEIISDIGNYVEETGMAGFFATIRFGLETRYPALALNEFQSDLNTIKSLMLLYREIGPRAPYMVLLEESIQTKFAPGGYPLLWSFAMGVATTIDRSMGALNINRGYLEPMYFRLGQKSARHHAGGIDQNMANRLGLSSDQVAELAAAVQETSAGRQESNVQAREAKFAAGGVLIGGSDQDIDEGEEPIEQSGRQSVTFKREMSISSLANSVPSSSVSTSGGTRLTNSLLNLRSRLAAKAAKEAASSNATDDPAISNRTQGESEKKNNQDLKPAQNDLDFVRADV
sequence,measurement,setting,value
MAEEQAYHVSKGLECLKALRENPPDIEEIQEVSSLRDQTC [P40-CDV],dose dependence of inhibition of CDV replication,CDV,dose-dependant
MDKLELVNDGLNIIDFIQKNQKEIQKTYGRSSIQQPSIKD [P40],inhibition of NiV viral growth (viral titer in culture supernatant),[1],significantly inhibits viral growth in a dose-dependent manner; also recorded: inhibited viral replication; also recorded: able to inhibit the replication of Nipah virus
same,syncytia formation in NiV-infected cells,[1],abolishes syncytia formation
same,colocalization with N in the cell,NiV N,colocalization of N with P40
same,maintenance of N in a soluble form,NiV N,sufficient to maintain N in a soluble form
same,inhibition of NiV viral growth (virus titer in culture supernatant),[2],inhibit viral growth
same,dose dependence of inhibition of CDV replication,CDV,dose-dependant
same,inhibition of CDV viral growth (virus titer in culture supernatant),CDV,inhibit viral growth
